{"source": "patent US20230272479A1", "about": "“BIOMARKER BASED PATIENT SELECTION FOR PROTEASOME INHIBITOR TREATMENT” (University of Utah Research Foundation, priority 2020, published 2023)", "key": {"Jurkat cells": {"tested_on": "Jurkat cells", "assay": "Viability of WT or ATAD1Δ Jurkat cells after treatment with MCL1 inhibitor", "assay_type": "cell-based, human", "settings": "ATAD1Δ vs WT Jurkat cells, 24 hr treatment", "procedure": "FIGS. 2A-2G show genome-wide CRISPR screens identify genetic interactions with ATAD1 (A) Schematic of CRISPR screening strategy (B) Generation of clonal ATAD1 knockout in a PTEN-null genetic background of Jurkat cells and proliferation rate of ATAD1Δ and WT Jurkat cells in RPMI1640 media (C) Volcano plot of CRISPR screening results; CRISPR scores were defined as the mean Log2 fold-change of sgRNAs targeting a given gene. Differential CRISPR scores (dCS) were calculated by subtracting the WT CS from the ATAD1Δ CS. dCS combined is the sum of dCS values for each clone. P-values were calculated for each gene using Kolmogorov-Smirnov with Benjamini Hochberg correction and Fisher's Method for P value meta-analysis. Dashed lines demarcate dCS<−2 and Padj<0.05 (D) DepMap data showing correlation of MARCH5 dependency and MCL1 dependency (E) Western blot of whole cell lysates from WT or ATAD1Δ Jurkat cells showing steady-state levels of BIM, MCL1, and FIS1, a non-BCL2 family control (F) Quantification of BIMEL levels in ATAD1Δ cells; n=6 independent experiments (G) Viability of WT or ATAD1Δ Jurkat cells after 24 hr treatment with the MCL1 inhibitor, AMG176.\nThus, like MARCH5, ATAD1 modulates members the BCL2 family and affects apoptotic priming as measured by sensitivity to a BH3-mimetic. […]"}, "H4 glioma cells": {"tested_on": "H4 glioma cells", "assay": "BH3 profiling (cytochrome C release / MOMP) in permeabilized H4 glioma cells", "assay_type": "cell-based", "settings": "compared across ATAD1 status", "procedure": "Cells were treated with doxycycline (250 ng/mL) for 24 hr (F) Co-immunoprecipitation of ATAD1-FLAG/HA and GFP-BIMEL in cells stably expressing ATAD1-FLAG or EV and transiently transfected overnight with GFP-BIMEL in the presence of zVAD-fmk (G) RPMI7951 cells were treated with MG132 (10 μM) for 4 hr, whole-cell lysates were prepped and analyzed by Western blot. (H) Schematic of reconstituted proteoliposome extraction assay (I) Extraction assay using His-ATAD1 and 3×FLAG-BIML (lanes 1-4, 9-20) or the negative control TA protein, 3×FLAG-Fis1 (lanes 5-8); GST-tagged SGTA and calmodulin (CaM) are included as chaperones to catch extracted TA protein. “I”=Input, “FT”=flow-through, “W”=final wash, “E”=elution. Eluted fractions represent TA proteins extracted by ATAD1 and bound by GST-tagged chaperones; compare elution “E” to input “I”. † denotes P<0.0001\nTo gain insight into how loss of ATAD1 affects apoptotic priming, BH3 profiling was conducted (33). Here, permeabilized cells are treated with BH3 peptides derived from different pro-apoptotic BH3-only proteins, and mitochondrial outer membrane permeability (MOMP) is directly measured by detecting cytochrome C release from mitochondria (FIG. 3A). […] This priming reflects a change in how the cell regulates the endogenous BIM protein. […]"}, "[1]": {"tested_on": "Del10q23 cells (SW1088 and H4 glioma and RPMI7951 melanoma)", "assay": "Viability of Del10q23 cells treated with proteasome inhibitors (Cell Titer Glo, crystal violet)", "assay_type": "cell-based", "procedure": "(§1) FIGS. 4A-4K show ATAD1 protects cells from apoptosis induced by proteasome dysfunction. (A) Viability of SW1088 cells transduced with EV or ATAD1-FLAG and treated for 24 hr with indicated drugs (B) Time-course of viability in response to bortezomib treatment in SW1088 cells (C) Western blot of RPMI7951 whole cell lysate treated with 10 nM bortezomib for 8 hr (D) Quantification of C (E) Viability of ATAD1-null vs. re-expressing RPMI7951 cells in response to 16 hr treatment with BTZ and the pan-caspase inhibitor, zVAD-FMK (20 μM) or DMSO (zVAD vehicle) (F) Same as E, but viability was measured by crystal violet staining and quantified in (G). (H) Schematic describing the role of ATAD1 in proteasome inhibitor toxicity (I) Tumor size of subcutaneous xenografts of SW1088 cells in NOD/SCID mice over time (J) Incidence of palpable tumors, or tumor-free survival, over time (K) Proliferation of cultured SW1088 cells as measured with crystal violet staining, n=2 independent experiments. † represents P<0.0001\n(§2) FIGS. 8A-8I show restoring ATAD1 expression in Del(10q23) cells increases resistance to proteasome inhibitors. (A) RPMI7951 cells were treated for 16 hr with bortezomib or carfilzomib and viability was measured by Cell Titer Glo. (B) Time-course of RPMI7951 cells treated with bortezomib (3.125 nM) n=3 biological replicates (C) SW1088 cells were cultured in 5 nM bortezomib for 48 hr and RPMI7951 cells were cultured for 24 hr and viability was assessed by crystal violet staining (D) H4 cells were treated with bortezomib for 24 hr and assessed by Cell Titer Glo (E) ATAD1 addback rescues mitochondrial morphology phenotype in response to bortezomib in SW1088 cells. Cells were treated with BTZ (10 nM) for 12 hr and stained with MitoTracker Red, then imaged on a widefield fluorescence microscope (F) Expression of ATAD1 in DepMap cell lines, highlighting PC3 cells (ATAD1 hemizygous), and two Del10q23 cell lines (G) Generation of ATAD1-deficient, polyclonal PC3 cells using stable expression of sgATAD1 (in LCv2G), with untargeted Cas9 only as a control (LCv2G) (H) Deletion of ATAD1 increases sensitivity to bortezomib in PC3 cells. […]\n(§3) Viability was determined by Cell Titer Glo (Promega) according to the manufacturer's recommendation, with some modifications. […] Luminescence was measured using a Biotek Synergy Neo2 microplate reader. Luminescence values were normalized on each plate to untreated cells on the same plate, and expressed as percent.\nCells cultured in 12 or 6 well plates were washed twice with PBS then fixed with 4% paraformaldehyde (Sigma Aldrich) for 30 minutes at room temperature. […] Absorbance was measured at 590 nm using a Biotek Synergy Neo2 microplate reader, and values were normalized to those from untreated cells of the same genotype on each plate."}, "PC3 cells": {"tested_on": "PC3 cells", "assay": "Viability of PC3 cells with ATAD1 deletion or overexpression treated with bortezomib", "assay_type": "cell-based", "procedure": "as §2\nViability was determined by Cell Titer Glo (Promega) according to the manufacturer's recommendation, with some modifications. […] Luminescence was measured using a Biotek Synergy Neo2 microplate reader. […]"}, "[2]": {"tested_on": "Del10q23 cells (RPMI7951)", "assay": "Apoptosis by Western blot of whole cell lysate after bortezomib", "assay_type": "cell-based", "settings": "RPMI7951, 10 nM, 8 hr", "procedure": "as §1\nWhole cell lysates were prepared by scraping cells directly into RIPA buffer supplemented with protease and phosphatase inhibitors (Sigma Aldrich P8340, Roche Molecular 04906845001), incubated on ice for 30 minutes with vortexing every 10 min, and then spun at 16,000 g for 10 minutes at 4° C. to remove insoluble material. Supernatant was saved as lysate. […]"}, "RPMI7951 cells": {"tested_on": "RPMI7951 cells", "assay": "Viability of ATAD1-null vs. re-expressing RPMI7951 cells with BTZ and pan-caspase inhibitor", "assay_type": "cell-based", "settings": "16 hr BTZ, zVAD-FMK 20 μM", "procedure": "as §1\nas §3, with “percent. […]” for “percent.”"}, "[3]": {"settings": "Del10q23 cells (ATAD1-null, EV)"}, "[4]": {"settings": "Del10q23 cells with expression of ATAD1"}}, "note": "Residues, ends and D or L forms follow the SMILES beside them. *: point of attachment. Cbz = O=C(OCc1ccccc1)*; CH2F = FC*", "data": [{"smiles": "CO[C@H]1/C=C/C[C@H](C)[C@@H](C)S(=O)(=O)NC(=O)c2ccc3c(c2)N(C[C@@H]2CC[C@H]21)C[C@@]1(CCCc2cc(Cl)ccc21)CO3", "note": "[AMG176]", "values": [{"measurement": "apoptotic priming (sensitivity to BH3-mimetic, viability)", "setting": "Jurkat cells", "value": "primed cells for apoptosis induced by AMG176"}]}, {"smiles": "CC(=O)NC(C)(C)C(=O)N1CCC[C@H]1C(=O)NC(C)(C)C(=O)N[C@@H](C)C(=O)NC(C)(C)C(=O)N[C@@H](C)C(=O)N[C@@H](CCC(N)=O)C(=O)NC(C)(C)C(=O)N[C@H](C(=O)NC(C)(C)C(=O)NCC(=O)N[C@@H](CC(C)C)C(=O)NC(C)(C)C(=O)N1CCC[C@H]1C(=O)N[C@H](C(=O)NC(C)(C)C(=O)NC(C)(C)C(=O)N[C@@H](CCC(=O)O)C(=O)N[C@@H](CCC(N)=O)C(=O)N[C@H](CO)Cc1ccccc1)C(C)C)C(C)C", "note": "[Alamethicin] (HELM PEPTIDE1{[ac].[Aib].P.[Aib].A.[Aib].A.Q.[Aib].V.[Aib].G.L.[Aib].P.V.[Aib].[Aib].E.Q.[OC[C@H](Cc1ccccc1)N[*:1]]}$$$$V2.0)", "values": [{"measurement": "cytochrome C release", "setting": "H4 glioma cells", "value": "induced cytochrome C release equally regardless of ATAD1 status"}]}, {"smiles": "CC(C)C[C@H](NC(=O)[C@H](Cc1ccccc1)NC(=O)c1cnccn1)B(O)O", "note": "[bortezomib]", "values": [{"measurement": "loss of viability", "setting": "[1]; [3]", "value": "potently and rapidly induced a loss of viability"}, {"measurement": "loss of viability", "setting": "[1]; [4]", "value": "mitigated by expression of ATAD1"}, {"measurement": "sensitivity (viability)", "setting": "PC3 cells; deletion of the remaining allele of ATAD1", "value": "sensitized to bortezomib"}, {"measurement": "resistance (viability)", "setting": "PC3 cells; overexpression of ATAD1 (not ATAD1E193Q)", "value": "increased resistance to bortezomib"}, {"measurement": "apoptosis", "setting": "[2]; ATAD1 re-expressing cells", "value": "only minimally"}, {"measurement": "apoptosis", "setting": "[2]; Del10q23-EV cells", "value": "robust apoptosis"}]}, {"smiles": "CC(C)C[C@H](NC(=O)[C@H](CCc1ccccc1)NC(=O)CN1CCOCC1)C(=O)N[C@@H](Cc1ccccc1)C(=O)N[C@@H](CC(C)C)C(=O)[C@@]1(C)CO1", "note": "[carfilzomib]", "values": [{"measurement": "loss of viability", "setting": "[1]; [3]", "value": "potently and rapidly induced a loss of viability"}, {"measurement": "loss of viability", "setting": "[1]; [4]", "value": "mitigated by expression of ATAD1"}]}, {"smiles": "COC(=O)C[C@H](NC(=O)[C@H](C)NC(=O)[C@@H](NC(=O)OCc1ccccc1)C(C)C)C(=O)CF", "note": "[zVAD] (Cbz-Val-Ala-Asp(OMe)-CH2F)", "values": [{"measurement": "effect on viability under bortezomib", "setting": "RPMI7951 cells", "value": "minimal additive effect"}]}]}
